According to publication PMC6878970, “Understanding the physicochemical properties and degradation kinetics of nicotinamide riboside, a promising vitamin B3nutritional supplement” (Food & Nutrition Research, 2019):
“And” between values parts separate entries of the source, which are not always exact repeats. Equal entries are not always repeated.

What was measured:
[1] = Degradation kinetics of NRCl in aqueous solutions (Arrhenius); type: physicochemical; details: for activation energy Ea of degradation: 55, 65, 75°C, n = 5
Experimental: NRCl degradation products and mechanism were determined and confirmed using ^1H NMR. NRCl degradation kinetics in aqueous solution was determined using three pH environments: pH 2.0, 5.0, and 7.4 (each with a constant ionic strength of 0.3M adjusted using NaCl), and three experimental temperature conditions, namely, 55°C, 65°C, and 75°C, respectively. In all cases, five replicates were used for pH–temperature combinations and each was an individual, sealed, and labelled glass vial with 20mL of the respective buffer. For each experiment, these vials were left overnight to equilibrate to the respective temperature environment in a temperature-controlled oven. At the start of each experiment, the vials were removed and a stock solution of NR was added. Aliquots were then extracted from each vial at this point for a t = 0 and the vials were placed back into the oven until the next time point. The sampling intervals were every 2, 1, and 0.5 h for 55°C, 65°C, and 75°C, respectively, and a total of five time points were used for each individual vial. When an aliquot was removed, it was dispensed into a 2mL micro tube and placed in ice to quench the reaction until preparation for HPLC analysis.

[2] = Combinatorial DSC and 1H NMR (qNMR) thermal decomposition; type: physicochemical; details: quench-cooled
Experimental: A Bruker® Ultrashield 400 MHz NMR was used for NMR spectroscopy. All samples were prepared using deuterated water. For ^1H NMR spectra acquisition, 256 scans were used. A relative quantitative NMR (qNMR) method was established and validated by comparing the integral values of NR chemical shift peaks to the integral values of the peaks of Nam. The integral of a peak is directly proportional to the number of nuclei the peak represents and the molar concentration of the compound in the sample ([14]). The percentage of NR was calculated using Equation 2 (modified from the literature), where INR H2 and INam H2 were the integral values of the singlet of NR H2 at 9.6 ppm and the singlet for Nam H2 at 8.6 ppm, respectively. N represents the number of nuclei (protons) that contribute to each peak. In this case, N = 1 for both NR H2 and Nam H2 peaks as they represent one proton each.
% NR in smaple=(INR H2/NNR H2)/(INR H2/NNR H2)+(INam H2/NNam H2)×100 Equation 2
DSC was used in conjunction with ^1H NMR spectroscopy to assess NR stability at certain temperatures and confirm compositional change throughout the entire thermal degradation process. […] This was then repeated in pans with no lids and these pans were then put in 1mL of D2O until all the contents were fully dissolved. The resulting D2O solutions were then subjected to ^1H NMR analysis, as previously detailed, to assess the stability of NRCl at each stage of its melting motif.

[3] = set-up: method as in PMID 26791540; details: cited from earlier work
[4] = test system: mammalian cell lines; set-up: method as in PMID 18052316; details: cited from earlier work
[5] = Experimental determination of pKa by UV spectroscopy; type: physicochemical; details: NaOH solutions; first focused experiment, pH range 11.0–12.2
Experimental: NR stock solution was added to nine respective buffer solutions ranging from pH 1.5 to 12.8 and analysed by UV spectroscopic scanning over 200–500 nm using a Cary 50 scan UV-visible spectrophotometer (Agilent Technologies, USA). […] Equation 1 is a modified Beers–Lambert and Henderson–Hasselbalch equation ([14]). This was used to calculate pKa. AI is the absorbance of the ionised species, AM is the absorbance of the molecular species, and A is the absorbance at any given pH. The same method as above was then repeated using the same parameters and equipment for a duplicate result.
pKa=pH+logAI−A/A−AM Equation 1

[6] = Aqueous solubility determination; type: physicochemical; details: for solubility at 24 h: aqueous buffer, thermodynamic from solid
Experimental: Three pH environments, namely pH 2.0, 5.0, and, 7.4, were used to determine the aqueous solubility of NR. Each buffer was added to a glass vial and stored at 4°C prior to the experiments. NRCl powder was then slowly added over a 24-h-periodunder constant mixing until the solution was clearly saturated (visual observation, n = 3). Aliquots were then drawn from each vial and passed through a 0.22 μm syringe filter unit (Millipore, Merck, USA). Samples were then analysed using the validated HPLC method.

[7] = NRCl stability in simulated gastrointestinal fluids; type: physicochemical
Experimental: NRCl powder was tested under simulated GI conditions to assess the stability of the raw material in fluids relevant to the GI physiology. These experiments were carried out using a Copley™ dissolution bath equipped with the USP II paddle apparatus at a stirring rate of 75rpm and a temperature of 37°C± 0.1°C. Five dissolution media were tested (Table 2). 0.1N HCl, USP simulated gastric fluid without pepsin (USP SGFW/O pepsin), and USP simulated gastric fluid with pepsin (USP SGF) were used to simulate the stomach environment. Phosphate standard buffer (Int. Pharm. SIF) and simulated intestinal fluid pH 6.8 (USP SIF) were used to simulate the intestinal environment. A 24-h simulation was also performed using the USP prolonged release (USP PR) method whereby for the first 2 h of the experiment the NRCl was added to 750 mL 0.1N HCl. Subsequently, 250 mL of 0.2M trisodium phosphate was added and pH adjusted to pH 6.8 for the remaining 22 h. This step-change pH model simulates the pH change in traversing from the stomach to the intestine ([15]).

[8] = test system: human blood NAD+; set-up: method as in PMID 27721479; details: after one single oral dose; cited from earlier work
[9] = test system: Sirtuin (SIRT); set-up: method as in PMID 12297502, PMID 14522996, PMID 12899610; details: cited from earlier work

For NC(=O)c1ccc[n+]([C@@H]2O[C@H](CO)[C@@H](O)[C@H]2O)c1 [NR, Nicotinamide riboside], the “pre-exponential factor A of degradation” value ([1]; pH 2.0) was 4.8e+10 min⁻¹, the “activation energy Ea of degradation” value ([1]; pH 2.0) was 75.4 (±2.9) kJ/mol and 75.4 kJ/mol and the “pre-exponential factor A of degradation” value ([1]; pH 5.0) was 3.2e+10 min⁻¹. The “activation energy Ea of degradation” value ([1]; pH 5.0) was 76.9 (±1.1) kJ/mol and 76.9 kJ/mol, the “pre-exponential factor A of degradation” value ([1]; pH 7.4) was 1.8e+12 min⁻¹ and the “activation energy Ea of degradation” value ([1]; pH 7.4) was 82.8 kJ/mol. The “increase in the degradation rate for every 10°C temperature elevation” value ([1]; same pH environment) was “approximate twofold increase”, the “degradation (qNMR)” value ([2]; solid heated to 115°C) was 2% and the “degradation (qNMR)” value ([2]; solid heated to 120°C) was 7%. The “degradation (qNMR)” value ([2]; solid heated to 125°C) was 55%, the “share of the sample that was NR (qNMR)” value ([2]; solid heated to 140°C) was 0.45% and the “lowest adverse effect level” value [3] was 1,000 mg/kg/day. For the same compound, the “no-observed-adverse-effect level (NOAEL)” value [3] was 300 mg/kg/day and the “increase of available NAD+” value [4] was “up to twofold”.

In the case of NC(=O)c1ccc[n+]([C@@H]2O[C@H](CO)[C@@H](O)[C@H]2O)c1 [NRCl, nicotinamide riboside chloride], the pKa [5] is reported as 11.5 ± 0.2, the “solubility class according to the USP definitions” value ([6]; all three tested pH environments (2.0, 5.0, 7.4), freely soluble = 100–1,000 mg/mL) is reported as “freely soluble” and the solubility at 24 h ([6]; pH 7.4, aqueous buffer) is reported as 826 ± 34.4 mg/mL. For the same compound, the solubility at 24 h ([6]; pH 2.0) was 972.7 ± 8.1 mg/mL, the solubility at 24 h ([6]; pH 5.0) was 860 ± 31 mg/mL and the NRCl remaining ([7]; 0.1N HCl pH 1.2, 37°C, 75rpm, after 2 h) was 97.64 ± 0.08%. The NRCl remaining ([7]; 24-h GI simulation (USP PR, pH 1.2 then 6.8 after 2 h), after 8 h) was 90.51 ± 0.82%, the NRCl remaining ([7]; Int. Pharm. SIF pH 6.8, 37°C, after 2 h) was 94.32 ± 1.16% and the NRCl remaining ([7]; Int. Pharm. SIF pH 6.8, 37°C, after another 2 h (4 h)) was 92.71 ± 0.81%. It also gave an NRCl remaining ([7]; USP SGF (with pepsin) pH 1.2, 37°C, 75rpm, after 2 h) of 97.17 ± 0.19%, an NRCl remaining ([7]; USP SGF without pepsin pH 1.2, 37°C, 75rpm, after 2 h) of 98.59 ± 0.10% and an NRCl remaining ([7]; USP SIF pH 6.8, 37°C, after 2 h) of 94.71 ± 2.66%. The NRCl remaining ([7]; USP SIF pH 6.8, 37°C, after another 2 h (4 h)) was 93.54 ± 2.37%, the “change of degradation rate on raising the pH value from 5.0 to 7.4” value ([1]; at each respective temperature) was “doubled” and the “activation energy Ea of degradation” value ([1]; pH 7.4) was 82.8 (±4.4) kJ/mol. The “degradation (qNMR)” value ([2]; solid heated to 115°C) was “completely intact” and the “increase in human blood NAD+” value [8] was “more than twofold”.

For NC(=O)c1cccnc1 [Nam, Nicotinamide], the “Sirtuin (SIRT) inhibition” value [9] is given as “known Sirtuin (SIRT) inhibitor”.
